Reference: patent publication US20180016289A1, “REDOX-SENSITIVE VESICLES” (THE ROYAL INSTITUTION FOR THE ADVANCEMENT OF …, priority 2015, published 2018)

Test: Cyclic voltammetry (CV) in acetonitrile
Format: physicochemical
Conditions: 0.1 M TBA-PF6, glassy carbon electrode, 50 mV.s^−1, Ag wire coated with AgCl reference, 1 mM
Procedure: FIG. 6: Cyclic voltammetry (CV) measurements conducted in acetonitrile using 0.1 M of TBA-PF6 as the electrolyte. All the measurements were conducted at a scan rate of 50 mV.s^−1 using a glassy carbon (Ø=3 mm) electrode as a working electrode, Pt wire as a counter electrode and Ag wire coated with AgCl as a reference electrode. (A) Voltammogram of a 1 mM ferroceneacetic acid solution (B) voltammogram of a 1 mM phospholipid 2 solution. (C) Voltammogram of a 1 mM phospholipid 3 solution.
FIG. 14: (A) Synthesis of Fc-DSP (3) from ferroceneacetic acid (1) and DSPE (2) using a detailed reaction and another graphical representation that are used in FIGS. 15-17 (B) CV measurements conducted in acetonitrile using 0.1 M of TBA-PF6 as the electrolyte. All measurements were conducted at a scan rate of 50 mV.s^−1 using a glassy carbon (Ø=3 mm) electrode as a working electrode, Pt wire as a counter electrode and Ag wire coated with AgCl as a reference electrode. (black) Voltammogram of a 1 mM phospholipid 2 solution. (red) Voltammogram of 1 mM phospholipid 3 solution.
Cyclic voltammetry (CV) and scanning electrochemical microscopy (SECM) measurements were performed with an HEKA Electrochemical Probe Scanner 3 or Probe Scanner 1 (HEKA Elektronik Dr. Schulze GmbH, Germany). […]

ferroceneacetic acid [compound 1]
reversible oxidation reduction of the ferrocene (potential): 0.42 V
